In US20260374754A1, “N-((ISOQUINOLIN-6-YL)METHYL)-1H-PYRAZOLE-4-CARBOXAMIDE DERIVATIVES AS PLASMA KALLIKREIN INHIBITORS FOR THE TREATMENT OF HEREDITARY ANGIODEMA” (Takeda Pharmaceutical Company Limited, priority 2022, published 2026):
Counter-ions that a name gives are not always drawn.

Each molecule was assayed against human activated kallikrein enzyme (Homo sapiens, UniProt P03952) (assay: Inhibition of human activated plasma kallikrein, fluorogenic PFR-AMC substrate, 500 pM enzyme format). Conditions: 500 pM activated kallikrein; 300 μM PFR-AMC; 30 min preincubation; 10 min room temperature; pH 7.5; read-out: Primary Dose Response Assay: Average EC50.
Sequence of human activated kallikrein enzyme (P03952 391-638 limits assumed): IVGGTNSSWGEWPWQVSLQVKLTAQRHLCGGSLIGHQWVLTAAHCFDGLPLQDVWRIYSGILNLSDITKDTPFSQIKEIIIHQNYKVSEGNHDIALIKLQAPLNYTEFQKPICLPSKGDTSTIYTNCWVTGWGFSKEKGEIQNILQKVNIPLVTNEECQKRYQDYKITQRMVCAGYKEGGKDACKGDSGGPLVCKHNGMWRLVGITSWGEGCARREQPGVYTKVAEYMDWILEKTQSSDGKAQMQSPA
Sequence of human activated kallikrein enzyme (P03952 20-390 partner limits assumed): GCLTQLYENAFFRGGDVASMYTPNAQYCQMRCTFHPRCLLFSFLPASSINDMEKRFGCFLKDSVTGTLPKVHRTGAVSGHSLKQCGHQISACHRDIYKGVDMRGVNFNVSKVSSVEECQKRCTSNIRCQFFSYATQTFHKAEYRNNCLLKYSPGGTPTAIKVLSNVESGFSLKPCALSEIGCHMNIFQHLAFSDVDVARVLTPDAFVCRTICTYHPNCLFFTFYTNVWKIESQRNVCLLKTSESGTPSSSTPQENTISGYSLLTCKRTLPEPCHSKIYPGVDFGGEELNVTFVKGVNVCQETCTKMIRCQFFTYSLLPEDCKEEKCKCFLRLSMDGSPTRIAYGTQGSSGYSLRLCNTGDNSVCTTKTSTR
Type: biochemical
Outline: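 Using fluorogenic PFR-AMC at 300 μM, cleavage by 500 pM human activated kallikrein ran 10 min at room temperature, read at 460 nm emission (380 nm excitation). Enzyme and compounds were first preincubated 30 min in 20 mM Tris pH 7.5, 150 mM NaCl, 1 mM EDTA, 0.1% PEG-400, 0.1% Triton X-100.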

Row | Compound | EC50 [nM]
1 | Cc1cc2c(N)nccc2c(C)c1CNc1cc(NCc2cc(C)c(OCc3ccccn3)c(C)c2)ncn1 [Example 353, N^4-((1-amino-5,7-dimethylisoquinolin-6-yl)methyl)-N^6-(3,5-dimethyl-4-(pyridin-2-ylmethoxy)benzyl)pyrimidine-4,6-diamine, formic acid salt] | 10 to 100
2 | Cc1cc2ccnc(NC(=O)OCc3ccccc3)c2c(C)c1CNc1cc(NCc2ccc(Cn3ccccc3=O)cc2)ncn1 [Example 248, benzyl (6,8-dimethyl-7-(((6-((4-((2-oxopyridin-1(2H)-yl)methyl)benzyl)amino)pyrimidin-4-yl)amino)methyl)isoquinolin-1-yl)carbamate] | 1 to 10
3 | Cc1cc2c(N)nccc2c(C)c1CNc1cc(NCc2ccc(Cn3ccccc3=O)cc2)ncn1 [Example 237, 1-(4-(((6-(((1-amino-5,7-dimethylisoquinolin-6-yl)methyl)amino)pyrimidin-4-yl)amino)methyl)benzyl)pyridin-2(1H)-one] | < 1
4 | COCc1nn(Cc2ccc(Cn3cccn3)cc2)cc1C(=O)NCc1c(C)cc2c(N)nccc2c1C [Example 187, 1-(4-((1H-pyrazol-1-yl)methyl)benzyl)-N-((1-amino-5,7-dimethylisoquinolin-6-yl)methyl)-3-(methoxymethyl)-1H-pyrazole-4-carboxamide] | < 1
5 | Cc1cc2c(N)nccc2c(C)c1CNC(=O)c1cnn(Cc2ccc(CC(=O)N3CC4C(C3)C4(F)F)cc2)c1 (stereo not drawn) [Example 214, N-((1-amino-5,7-dimethylisoquinolin-6-yl)methyl)-1-(4-(2-(6,6-difluoro-3-azabicyclo[3.1.0]hexan-3-yl)-2-oxoethyl)benzyl)-1H-pyrazole-4-carboxamide] | < 1
6 | Cc1cc2c(N)nccc2c(C)c1CNc1cc(CCc2ccc(Cn3cccn3)cc2)ncn1 [Example I-460, 6-((6-(4-((1H-pyrazol-1-yl)methyl)phenethyl)pyrimidin-4-ylamino)methyl)-5,7-dimethylisoquinolin-1-amine] | 10 to 100
7 | Cc1cnc2ccc(CNc3cc(NCc4c(C)cc5c(N)nccc5c4C)ncn3)cc2c1 [Example 336, N^4-((1-amino-5,7-dimethylisoquinolin-6-yl)methyl)-N^6-((3-methylquinolin-6-yl)methyl)pyrimidine-4,6-diamine] | < 1
8 | Cc1cc2c(N)nccc2c(C)c1CNC(=O)c1cnn(Cc2sc3ccccc3c2Cl)c1 [Example 80, N-((1-amino-5,7-dimethylisoquinolin-6-yl)methyl)-1-((3-chlorobenzo[b]thiophen-2-yl)methyl)-1H-pyrazole-4-carboxamide] | 100 to 1000
9 | Cc1cc2c(N)nccc2c(C)c1CNc1cc(OCc2ccc3ncc(Cl)cc3c2)cnn1 [Example 407, 6-(((5-((3-chloroquinolin-6-yl)methoxy)pyridazin-3-yl)amino)methyl)-5,7-dimethylisoquinolin-1-amine] | < 1
10 | CCOC(=O)CCc1nc(NCc2c(C)cc3c(N)nccc3c2C)cc(OCc2cn3cc(C4CC4)ccc3n2)n1 [Example 274, ethyl 3-(4-(((1-amino-5,7-dimethylisoquinolin-6-yl)methyl)amino)-6-((6-cyclopropylimidazo[1,2-a]pyridin-2-yl)methoxy)pyrimidin-2-yl)propanoate] | 1 to 10
11 | Cc1cc2c(N)nccc2c(C)c1CNc1cc(NCc2ccc(Cn3cccn3)cc2)cnn1 [Example 447, N^5-(4-((1H-pyrazol-1-yl)methyl)benzyl)-N^3-((1-amino-5,7-dimethylisoquinolin-6-yl)methyl)pyridazine-3,5-diamine] | < 1
12 | Cc1cc2c(N)nccc2c(C)c1CNc1cc(NCc2ccc(CO)cc2)ncn1 [Example I-461, (4-(((6-(((1-amino-5,7-dimethylisoquinolin-6-yl)methyl)amino)pyrimidin-4-yl)amino)methyl)phenyl)methanol] | 1 to 10
13 | Cc1cc2c(N)nccc2c(C)c1CNc1cc(NCc2ccc(Cc3ccccn3)cc2)ncn1 [Example 363, N^4-((1-amino-5,7-dimethylisoquinolin-6-yl)methyl)-N^6-(4-(pyridin-2-ylmethyl)benzyl)pyrimidine-4,6-diamine] | < 1
14 | Cc1cc2c(N)nccc2c(C)c1CNC(=O)c1cnn(Cc2ccc3ncc(C4CC4)cc3c2)c1 [Example 28, N-((1-amino-5,7-dimethylisoquinolin-6-yl)methyl)-1-((3-cyclopropylquinolin-6-yl)methyl)-1H-pyrazole-4-carboxamide] | < 1
15 | Cc1cc2c(N)nccc2c(C)c1CNc1nccc2cn(Cc3nc4ccc(C5CC5)cn4n3)nc12 [Example 263, 6-(((2-((6-cyclopropyl-[1,2,4]triazolo[1,5-a]pyridin-2-yl)methyl)-2H-pyrazolo[3,4-c]pyridin-7-yl)amino)methyl)-5,7-dimethylisoquinolin-1-amine] | 1 to 10
16 | Cc1cc2c(N)nccc2c(C)c1CNc1ncnc2c1nc(Cc1ccc3ncc(Cl)cc3c1)n2C [Example 539, 6-(((8-((3-chloroquinolin-6-yl)methyl)-9-methyl-9H-purin-6-yl)amino)methyl)-5,7-dimethylisoquinolin-1-amine] | 100 to 1000

The next lines start with the values.

Row | EC50 [nM] | Compound
17 | 1 to 10 | Cc1cc2c(N)nccc2c(C)c1CNC(=O)c1cnn(Cc2cn3cc(C4CC4(C)C)ccc3n2)c1 (stereo not drawn) [Example 176, N-((1-amino-5,7-dimethylisoquinolin-6-yl)methyl)-1-((6-(2,2-dimethylcyclopropyl)imidazo[1,2-a]pyridin-2-yl)methyl)-1H-pyrazole-4-carboxamide]
18 | 1 to 10 | Cc1cc2c(N)nccc2c(C)c1CNC(=O)c1cnn(Cc2ccc3cc(Br)ccc3n2)c1 [Example 69, N-((1-amino-5,7-dimethylisoquinolin-6-yl)methyl)-1-((6-bromoquinolin-2-yl)methyl)-1H-pyrazole-4-carboxamide]
19 | 10 to 100 | COc1cccc(Cn2cc(C(=O)NCc3c(C)cc4c(N)nccc4c3C)cn2)c1 [Example 43, N-((1-amino-5,7-dimethylisoquinolin-6-yl)methyl)-1-(3-methoxybenzyl)-1H-pyrazole-4-carboxamide]
20 | < 1 | Cc1cc2c(N)nccc2c(C)c1CNC(=O)c1cnn(Cc2ccc3nc(C)c(C)nc3c2)c1 [Example I-464, N-((1-amino-5,7-dimethylisoquinolin-6-yl)methyl)-1-((2,3-dimethylquinoxalin-6-yl)methyl)-1H-pyrazole-4-carboxamide]
21 | < 1 | Cc1ccn2cc(Cn3cc(C(=O)NCc4c(C)cc5c(N)nccc5c4C)cn3)nc2c1 [Example 103, N-((1-amino-5,7-dimethylisoquinolin-6-yl)methyl)-1-((7-methylimidazo[1,2-a]pyridin-2-yl)methyl)-1H-pyrazole-4-carboxamide]
22 | 1 to 10 | Cc1cc2c(N)nccc2c(C)c1CNC(=O)c1cnn(Cc2ccc3ccc(Cl)cc3n2)c1 [Example 107, N-((1-amino-5,7-dimethylisoquinolin-6-yl)methyl)-1-((7-chloroquinolin-2-yl)methyl)-1H-pyrazole-4-carboxamide]
23 | 10 to 100 | COc1ccc(Cn2cc(C(=O)NCc3c(C)cc4c(N)nccc4c3C)cn2)cc1 [Example 91, N-((1-amino-5,7-dimethylisoquinolin-6-yl)methyl)-1-(4-methoxybenzyl)-1H-pyrazole-4-carboxamide]
24 | 100 to 1000 | Cc1cc2c(N)nccc2c(C)c1CNC(=O)c1cnn(Cc2cncnc2)c1 [Example 77, N-((1-amino-5,7-dimethylisoquinolin-6-yl)methyl)-1-(pyrimidin-5-ylmethyl)-1H-pyrazole-4-carboxamide]
